# Data taken from patent US11718616B2, “JAK kinase inhibitor compounds for treatment of respiratory disease” (THERAVANCE BIOPHARMA R&D IP, LLC, priority 2015, dated 2023).
# Columns and labels:
# [1] = test system: IL-13 induced pSTAT6 induction in lung tissue; assay: Murine model of IL-13 induced pSTAT6 induction in lung tissue; type: in vivo, mouse; details: for lung concentration smaller than that of the corresponding compound of the invention by a factor of: mouse lung in pharmacodynamic assay, C-1 vs Example 1, C-2 vs 7, C-3 vs 13, C-4 vs 6; for pSTAT6 inhibition in the pharmacodynamic assay: mouse lung, Assay 5 conditions
# Description: Il-13 is an important cytokine underlying the pathophysiology of asthma (Kudlacz et al. Eur. J Pharmacol, 2008, 582, 154-161). IL-13 binds to cell surface receptors activating members of the Janus family of kinases (JAK) which then phosphorylate STAT6 and subsequently activates further transcription pathways. In the described model, a dose of IL-13 was delivered locally into the lungs of mice to induce the phosphorylation of STAT6 (pSTAT6) which is then measured as the endpoint.
# Adult balb/c mice from Harlan were used in the assay. On the day of study, animals were lightly anesthetized with isoflurane and administered either vehicle or test compound (0.5 mg/mL, 50 μL total volume over several breaths) via oral aspiration. Animals were placed in lateral recumbency post dose and monitored for full recovery from anesthesia before being returned to their home cage. Four hours later, animals were once again briefly anesthetized and challenged with either vehicle or IL-13 (0.03 μg total dose delivered, 50 μL total volume) via oral aspiration before being monitored for recovery from anesthesia and returned to their home cage. One hour after vehicle or IL-13 administration, lungs were collected for both pSTAT6 detection using an anti-pSTAT6 ELISA (rabbit mAb capture/coating antibody; mouse mAb detection/report antibody: anti-pSTAT6-pY641; secondary antibody: anti-mouse IgG-HRP) and analyzed for total drug concentration as described above in Assay 4.
# Selected compounds of the invention were tested in the assay. Activity in the model is evidenced by a decrease in the level of pSTAT6 present in the lungs of treated animals at 5 hours compared to the vehicle treated, IL-13 challenged control animals. The difference between the control animals which were vehicle-treated, IL-13 challenged and the control animals which were vehicle-treated, vehicle challenged dictated the 0% and 100% inhibitory effect, respectively, in any given experiment.
# [2] = molecular target: JAK1 (Homo sapiens (Human), UniProt P23458); assay: LanthaScreen JAK biochemical assay, JAK1; details: C-1 vs Example 1, C-2 vs 7, C-3 vs 13, C-4 vs 6
# Sequence of JAK1 (P23458 whole entry): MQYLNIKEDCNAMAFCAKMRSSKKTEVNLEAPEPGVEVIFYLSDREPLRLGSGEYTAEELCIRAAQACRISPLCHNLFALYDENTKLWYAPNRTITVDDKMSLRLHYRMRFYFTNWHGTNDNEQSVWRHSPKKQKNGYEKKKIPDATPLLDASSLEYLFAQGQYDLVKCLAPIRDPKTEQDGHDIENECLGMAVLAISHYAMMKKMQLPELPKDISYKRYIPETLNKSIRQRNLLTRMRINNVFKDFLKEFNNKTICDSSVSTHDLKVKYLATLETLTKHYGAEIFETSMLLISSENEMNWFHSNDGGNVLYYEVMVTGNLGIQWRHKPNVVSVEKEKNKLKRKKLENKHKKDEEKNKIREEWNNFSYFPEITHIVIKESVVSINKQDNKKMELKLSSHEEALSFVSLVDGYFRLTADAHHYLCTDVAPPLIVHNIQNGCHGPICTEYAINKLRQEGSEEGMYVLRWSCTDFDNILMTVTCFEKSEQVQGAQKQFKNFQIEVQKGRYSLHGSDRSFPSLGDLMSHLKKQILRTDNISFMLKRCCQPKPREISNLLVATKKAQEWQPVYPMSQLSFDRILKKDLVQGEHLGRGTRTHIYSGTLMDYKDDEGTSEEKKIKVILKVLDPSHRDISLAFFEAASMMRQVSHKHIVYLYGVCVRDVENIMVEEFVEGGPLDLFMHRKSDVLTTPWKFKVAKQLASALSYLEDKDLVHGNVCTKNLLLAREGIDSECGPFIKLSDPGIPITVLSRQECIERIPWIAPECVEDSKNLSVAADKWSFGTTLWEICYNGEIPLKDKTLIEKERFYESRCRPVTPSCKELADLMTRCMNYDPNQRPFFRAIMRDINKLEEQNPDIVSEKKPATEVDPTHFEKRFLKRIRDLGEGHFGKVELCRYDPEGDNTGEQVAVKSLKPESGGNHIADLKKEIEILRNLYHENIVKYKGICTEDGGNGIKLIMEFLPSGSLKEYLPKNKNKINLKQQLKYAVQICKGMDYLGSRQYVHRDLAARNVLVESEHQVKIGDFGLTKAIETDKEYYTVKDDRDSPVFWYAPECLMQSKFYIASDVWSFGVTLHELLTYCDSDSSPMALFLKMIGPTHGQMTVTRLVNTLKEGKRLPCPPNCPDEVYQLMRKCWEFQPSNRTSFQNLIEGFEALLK
# [3] = Dynamic moisture sorption assessment; type: physicochemical; details: humidity range of 5% to 90% relative humidity, about 25° C.
# Description: Dynamic moisture sorption (DMS) measurement was performed using a VTI atmospheric microbalance, SGA-100 system (VTI Corp., Hialeah, Fla. 33016). A weighed sample was used and the humidity was lowest possible value (close to 0% RH) at the start of the analysis. The DMS analysis consisted of an initial drying step (˜0% RH) for 120 minutes, followed by two cycles of sorption and desorption with a scan rate of 5% RH/step over the humidity range of 5% RH to 90% RH. The DMS run was performed isothermally at 25° C.
weight gain (weight change) on moisture sorption [3],Structure (SMILES),lung concentration smaller than that of the corresponding compound of the invention by a factor of [1],fold less potent than the corresponding compound of the invention in the enzyme assay [2],pSTAT6 inhibition in the pharmacodynamic assay [1]
,"CCc1cc(O)c(F)cc1-c1ccc2c(-c3nc4c([nH]3)CCN(C3CC(C)C3)C4)n[nH]c2c1 (centres unmarked) [Example C-1, 5-Ethyl-2-fluoro-4-(3-(5-(3-methylcyclobutyl)-4,5,6,7-tetrahydro-1H-imidazo[4,5-c]pyridin-2-yl)-1H-indazol-6-yl)phenol]",36,2 fold,
,CCc1cc(O)c(F)cc1-c1ccc2c(-c3nc4c([nH]3)CCN(CC3CCCOC3)C4)n[nH]c2c1 (centres unmarked) [Example C-3],13,6 fold,
,CCc1cc(O)c(F)cc1-c1ccc2c(-c3nc4c([nH]3)CCN(CCC(C)C)C4)n[nH]c2c1 [Example C-2],52,3 fold,
,CCc1cc(O)c(F)cc1-c1ccc2c(-c3nc4c([nH]3)CCN(C3CCC(C)CC3)C4)n[nH]c2c1 (centres unmarked) [Example C-4],23,2.5 fold,
,CCc1cc(O)c(F)cc1-c1ccc2c(-c3nc4c([nH]3)CCN(C3CN(C5CCS(=O)(=O)C5)C3)C4)n[nH]c2c1 (centres unmarked) [Example 1-15],,,exceptions
,CCc1cc(O)c(F)cc1-c1ccc2c(-c3nc4c([nH]3)CCN(CCNC3(C#N)CC3)C4)n[nH]c2c1 [Example 3-1],,,exceptions
less than 0.12%,"CCc1cc(O)c(F)cc1-c1ccc2c(-c3nc4c([nH]3)CCN(C3CCN(C)CC3)C4)n[nH]c2c1 [crystalline hydrate, 5-ethyl-2-fluoro-4-(3-(5-(1-methylpiperidin-4-yl)-4,5,6,7-tetrahydro-1H-imidazo[4,5-c]pyridin-2-yl)-1H-indazol-6-yl)phenol]",,,
